According to patent publication US20090177280A1, “Implant With Multiple Coating” (priority 2005, published 2009):
Entries after “also recorded” stand apart in the source; their conditions may differ.

Test: Release of rapamycin from spray-coated microporous stents (UV spectroscopy at 280 nm)
Format: physicochemical
Settings: for effect of second drug on rapamycin release from the stent platform: 0.5% and 1.0% 17β estradiol valerate added to 1% rapamycin solution in ethanol
Procedure: Microporous stents are spray-coated by means of a unique stent-coating machine (Wessely et al, supra). Attachment of a drug-reservoir is required to supply one or multiple drugs of choice. Besides sirolimus (rapamycin) we included a second drug at different concentrations to examine whether release kinetics of the primary compound (e.g. sirolimus) could be altered. Released rapamycin from the stent platform were measured at distinctive time points as previously described (Wessely, supra) by means of UV spectroscopy at a wave length of 280 nm.
The experiment was carried out as Example 1 with the exception that 17β estradiol was used as second drug.
The experiment was carried out as Example 1 with the exception that rosiglitazone was used as second drug.
The experiment was carried out as Example 1 with the exception that probucol was used as second drug.

COc1ccccc1OCCNCC(O)COc1cccc2[nH]c3ccccc3c12 (stereo not shown) [carvedilol]
effect of second drug on stent-based rapamycin release (multiplex coating with rapamycin (1%) and carvedilol (0.5%) in ethanol vs single coated rapamycin (1%)): clear retardation

CC(C)(Sc1cc(C(C)(C)C)c(O)c(C(C)(C)C)c1)Sc1cc(C(C)(C)C)c(O)c(C(C)(C)C)c1 [probucol, 4,4′-(isopropylidenedithio) bis(2,6-di-tert-butyl-phenol)]
effect of second drug on release of rapamycin from the stent (0.1%, 0.5% and 1.0% probucol added to 4% rapamycin solution in ethanol, polymer-free): protracts the release of rapamycin; also recorded: modifiable

CCCCC(=O)O[C@H]1CC[C@H]2[C@@H]3CCc4cc(O)ccc4[C@H]3CC[C@]12C [17β estradiol valerate]
effect of second drug on rapamycin release from the stent platform (0.1%): substantially modulate rapamycin release | effect of second drug on rapamycin release from the stent platform (0.1%, listed as estradiolvalerat): retardation
